Experimental data taken from PubChem BioAssay (NCI).
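In this assay, cells in 96-well plates receive the compound at five concentrations for 48 hours. Endpoints are linearly interpolated between the surrounding concentrations. At the TGI there is no net growth.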 Square brackets hold non-standard residues; d marks the D form. Peptide text beside a SMILES is read from it. * marks the point of attachment. Boc = CC(C)(C)OC(=O)*; OBn = c1ccc(CO*)cc1

Tests used:
Test in all cases: NCI tumour cell line growth inhibition, 48 h
[1] = test system: HS 578T breast
[2] = test system: M14 melanoma
[3] = test system: NCI/ADR-RES ovarian
[4] = test system: UACC-62 melanoma
[5] = test system: MDA-MB-231 breast
[6] = test system: MALME-3M melanoma
[7] = test system: A498 renal
[8] = test system: SR leukemia
[9] = test system: HOP-92 NSCLC
[10] = test system: NCI-H460 lung
[11] = test system: 786-0 renal
[12] = test system: CAKI-1 renal
[13] = test system: OVCAR-4 ovarian
[14] = test system: MCF7 breast
[15] = test system: CCRF-CEM leukemia
[16] = test system: HOP-62 NSCLC
[17] = test system: A549 NSCLC
[18] = test system: SF-295 CNS
[19] = test system: IGROV1 ovarian
[20] = test system: SK-OV-3 ovarian
[21] = test system: HL-60(TB) leukemia
[22] = test system: HCT-15 colon
[23] = test system: PC-3 prostate
[24] = test system: DU-145 prostate
[25] = test system: EKVX NSCLC
[26] = test system: SF-268 CNS
[27] = test system: SK-MEL-2 melanoma
[28] = test system: ACHN renal
[29] = test system: OVCAR-8 ovarian
[30] = test system: UACC-257 melanoma
[31] = test system: HT29 colon
[32] = test system: T-47D breast
[33] = test system: BT-549 breast
[34] = test system: OVCAR-5 ovarian
[35] = test system: SN12C renal
[36] = test system: SNB-75 CNS
[37] = test system: COLO 205 colon
[38] = test system: NCI-H23 lung
[39] = test system: SNB-19 CNS
[40] = test system: KM12 colon
[41] = test system: HCT-116 colon
[42] = test system: SW-620 colon
[43] = test system: RXF 393 renal
[44] = test system: RPMI-8226 leukemia
[45] = test system: MDA-N
[46] = test system: SF-539 CNS
[47] = test system: MOLT-4 leukemia
[48] = test system: UO-31 renal
[49] = test system: NCI-H522 lung
[50] = test system: NCI-H226 lung
[51] = test system: SK-MEL-5 melanoma
[52] = test system: MDA-MB-435
[53] = test system: U251 CNS
[54] = test system: K-562 leukemia
[55] = test system: SK-MEL-28 melanoma
[56] = test system: OVCAR-3 ovarian
[57] = test system: LOX IMVI melanoma
[58] = test system: TK-10 renal

Question: What does the source list for `COc1cc2c(c(O)c1OC)C(=O)C1CCC(=O)N1C2c1cccc2ccccc12` (configuration not stated)?
Answer: TGI [1]: > 100 µM; TGI [2]: > 100 µM; TGI [3]: > 100 µM; TGI [4]: > 100 µM; TGI [5]: > 100 µM; TGI [6]: > 100 µM; TGI [7]: > 100 µM; TGI [8]: > 100 µM; TGI [9]: 89.5 µM; TGI [10]: > 100 µM; TGI [11]: > 100 µM; TGI [12]: > 100 µM; TGI [13]: > 100 µM; TGI [14]: > 100 µM; TGI [15]: 77 µM; TGI [16]: > 100 µM; TGI [17]: > 100 µM; TGI [18]: > 100 µM; TGI [19]: > 100 µM; TGI [20]: > 100 µM; TGI [21]: 63.9 µM; TGI [22]: > 100 µM; TGI [23]: > 100 µM; TGI [24]: > 100 µM; TGI [25]: > 100 µM; TGI [26]: > 100 µM; TGI [27]: > 100 µM; TGI [28]: > 100 µM; TGI [29]: > 100 µM; TGI [30]: > 100 µM; TGI [31]: > 100 µM; TGI [32]: > 100 µM; TGI [33]: > 100 µM; TGI [34]: > 100 µM; TGI [35]: > 100 µM; TGI [36]: > 100 µM; TGI [37]: 32.8 µM; TGI [38]: > 100 µM; TGI [39]: > 100 µM; TGI [40]: > 100 µM; TGI [41]: > 100 µM; TGI [42]: > 100 µM; TGI [43]: > 100 µM; TGI [44]: 81.2 µM; TGI [45]: > 100 µM; TGI [46]: > 100 µM; TGI [47]: 89.6 µM; TGI [48]: > 100 µM; TGI [49]: > 100 µM; TGI [50]: > 100 µM; TGI [51]: > 100 µM; TGI [52]: > 100 µM; TGI [53]: > 100 µM; TGI [54]: 59.2 µM; TGI [55]: > 100 µM; TGI [56]: > 100 µM

Question: Which results are given for `C[C@@H](NC(=O)CNC(=O)OC(C)(C)C)C(=O)N[C@@H](Cc1ccccc1)C(=O)OCc1ccccc1` (Boc-Gly-[dA]-Phe-OBn)?
Answer: TGI [1]: 71.2 µM; TGI [57]: 58 µM; TGI [2]: 44.7 µM; TGI [3]: > 100 µM; TGI [4]: > 100 µM; TGI [5]: > 100 µM; TGI [6]: 32.6 µM; TGI [8]: 88.9 µM; TGI [9]: 45.3 µM; TGI [11]: > 100 µM; TGI [12]: > 100 µM; TGI [13]: > 100 µM; TGI [14]: > 100 µM; TGI [15]: 67 µM; TGI [17]: > 100 µM; TGI [18]: > 100 µM; TGI [19]: > 100 µM; TGI [20]: > 100 µM; TGI [21]: > 100 µM; TGI [22]: > 100 µM; TGI [23]: > 100 µM; TGI [24]: > 100 µM; TGI [25]: > 100 µM; TGI [26]: > 100 µM; TGI [27]: > 100 µM; TGI [28]: > 100 µM; TGI [29]: > 100 µM; TGI [30]: > 100 µM; TGI [31]: > 100 µM; TGI [32]: > 100 µM; TGI [33]: > 100 µM; TGI [34]: > 100 µM; TGI [35]: > 100 µM; TGI [36]: > 100 µM; TGI [37]: 32.7 µM; TGI [38]: > 100 µM; TGI [39]: > 100 µM; TGI [40]: > 100 µM; TGI [41]: > 100 µM; TGI [42]: > 100 µM; TGI [43]: > 100 µM; TGI [45]: > 100 µM; TGI [46]: > 100 µM; TGI [47]: 88.1 µM; TGI [48]: > 100 µM; TGI [49]: 80.4 µM; TGI [58]: > 100 µM; TGI [50]: > 100 µM; TGI [51]: 42.2 µM; TGI [52]: > 100 µM; TGI [53]: > 100 µM; TGI [54]: 64.4 µM; TGI [55]: 39.4 µM

Question: How did the TGI [1] turn out when `COC(=O)C1C(OS(=O)(=O)O)CCC2CN3CCc4c([nH]c5ccccc45)C3CC21` (configuration not stated) was run?
Answer: > 100 µM

Question: And the TGI [57]?
Answer: > 100 µM

Question: And the TGI [2]?
Answer: > 100 µM

Question: And the TGI [3]?
Answer: > 100 µM

Question: What about the TGI [4] of the same molecule?
Answer: > 100 µM

Question: And the TGI [5]?
Answer: > 100 µM

Question: What about the TGI [6] of the same molecule?
Answer: > 100 µM

Question: What about the TGI [7] of the same molecule?
Answer: > 100 µM

Question: What about the TGI [8] of the same molecule?
Answer: > 100 µM

Question: What about the TGI [9] of the same molecule?
Answer: > 100 µM

Question: What about the TGI [10] of the same molecule?
Answer: > 100 µM

Question: And the TGI [11]?
Answer: > 100 µM

Question: And the TGI [12]?
Answer: > 100 µM

Question: What about the TGI [13] of the same molecule?
Answer: > 100 µM

Question: And the TGI [14]?
Answer: > 100 µM

Question: What about the TGI [15] of the same molecule?
Answer: > 100 µM

Question: And the TGI [16]?
Answer: > 100 µM

Question: What about the TGI [17] of the same molecule?
Answer: > 100 µM

Question: What about the TGI [18] of the same molecule?
Answer: > 100 µM

Question: And the TGI [19]?
Answer: > 100 µM

Question: What about the TGI [20] of the same molecule?
Answer: > 100 µM

Question: What about the TGI [21] of the same molecule?
Answer: > 100 µM

Question: And the TGI [22]?
Answer: > 100 µM

Question: And the TGI [23]?
Answer: > 100 µM

Question: What about the TGI [24] of the same molecule?
Answer: > 100 µM

Question: What about the TGI [25] of the same molecule?
Answer: > 100 µM

Question: And the TGI [26]?
Answer: > 100 µM

Question: And the TGI [27]?
Answer: > 100 µM

Question: And the TGI [28]?
Answer: > 100 µM

Question: And the TGI [29]?
Answer: > 100 µM

Question: And the TGI [30]?
Answer: > 100 µM

Question: And the TGI [31]?
Answer: > 100 µM

Question: And the TGI [32]?
Answer: > 100 µM

Question: What about the TGI [33] of the same molecule?
Answer: > 100 µM

Question: What about the TGI [34] of the same molecule?
Answer: > 100 µM

Question: And the TGI [35]?
Answer: > 100 µM

Question: What about the TGI [36] of the same molecule?
Answer: > 100 µM

Question: And the TGI [37]?
Answer: > 100 µM

Question: And the TGI [38]?
Answer: > 100 µM

Question: What about the TGI [39] of the same molecule?
Answer: > 100 µM

Question: And the TGI [40]?
Answer: > 100 µM

Question: And the TGI [41]?
Answer: > 100 µM

Question: And the TGI [42]?
Answer: > 100 µM

Question: And the TGI [43]?
Answer: > 100 µM

Question: What about the TGI [44] of the same molecule?
Answer: > 100 µM

Question: What about the TGI [45] of the same molecule?
Answer: > 100 µM

Question: What about the TGI [46] of the same molecule?
Answer: > 100 µM

Question: And the TGI [47]?
Answer: > 100 µM

Question: And the TGI [48]?
Answer: > 100 µM

Question: And the TGI [49]?
Answer: > 100 µM

Question: What about the TGI [58] of the same molecule?
Answer: > 100 µM

Question: And the TGI [50]?
Answer: > 100 µM

Question: And the TGI [51]?
Answer: > 100 µM

Question: What about the TGI [52] of the same molecule?
Answer: > 100 µM

Question: And the TGI [53]?
Answer: > 100 µM

Question: What about the TGI [54] of the same molecule?
Answer: > 100 µM

Question: What about the TGI [55] of the same molecule?
Answer: > 100 µM

Question: And the TGI [56]?
Answer: > 100 µM
